Laboratory results as given in patent publication US20210045385A1, “PYRIDAZINONE-SUBSTITUTED KETOXIMES AS HERBICIDES” (FMC Corporation, priority 2018, published 2021).

Key:
Assay type in all cases: in vivo
[1] = test system: Italian ryegrass (Lolium multiflorum); assay: Test A preemergence, visual plant response rating; settings: for Ryegrass, Italian plant response rating: 125 g ai/ha, preemergence, 0 to 100 scale, 0 no effect, 100 complete control; for Ryegrass, Italian plant response rating (0 to 100 scale): 500 g ai/ha Preemergence, approx. 10 days
Procedure, shortened: (§1)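 Preemergence: seeds in loam/sand blend given directed soil spray of compound in non-phytotoxic solvent with surfactant. Postemergence: plants 2–10 cm, one- to two-leaf stage, sprayed with same formulation. Visual injury rated vs untreated controls after ~10 days in greenhouse, 0 (no effect) to 100 (complete control).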

[2] = test system: barnyardgrass (Echinochloa crus-galli); assay: Test A preemergence, visual plant response rating; settings: for Barnyardgrass plant response rating: 125 g ai/ha, preemergence, 0 to 100 scale, 0 no effect, 100 complete control; for Barnyardgrass plant response rating (0 to 100 scale): 500 g ai/ha Preemergence, approx. 10 days
Procedure, shortened: as §1

[3] = test system: foxtail, giant (giant foxtail, Setaria faberii); assay: Test A preemergence, visual plant response rating; settings: for Foxtail, Giant plant response rating: 125 g ai/ha, preemergence, 0 to 100 scale, 0 no effect, 100 complete control; for Foxtail, Giant plant response rating (0 to 100 scale): 500 g ai/ha Preemergence, approx. 10 days
Procedure, shortened: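 Compared with untreated controls, treated plants received a visual injury score on a 0–100 scale around 10 days after application. The compound, in a non-phytotoxic solvent with surfactant, was given as a preemergence soil spray or postemergence at the one- to two-leaf stage.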

kochia (Kochia scoparia) [4] = assay: Test A preemergence, visual plant response rating; settings: for Kochia plant response rating: 125 g ai/ha, preemergence, 0 to 100 scale, 0 no effect, 100 complete control; for Kochia plant response rating (0 to 100 scale): 500 g ai/ha Preemergence, approx. 10 days
Procedure, shortened: as §1

[5] = test system: pigweed (Amaranthus retroflexus); assay: Test A preemergence, visual plant response rating; settings: for Pigweed plant response rating: 125 g ai/ha, preemergence, 0 to 100 scale, 0 no effect, 100 complete control; for Pigweed plant response rating (0 to 100 scale): 500 g ai/ha Preemergence, approx. 10 days
Procedure, shortened: as §1

[6] = test system: ragweed (common ragweed, Ambrosia elatior); assay: Test A preemergence, visual plant response rating; settings: for Ragweed plant response rating: 125 g ai/ha, preemergence, 0 to 100 scale, 0 no effect, 100 complete control; for Ragweed plant response rating (0 to 100 scale): 500 g ai/ha Preemergence, approx. 10 days
Procedure, shortened: as §1

[7] = test system: Italian ryegrass (Lolium multiflorum); assay: Test A postemergence, visual plant response rating; settings: for Ryegrass, Italian plant response rating (0 to 100 scale): 500 g ai/ha, postemergence, 0 is no effect, 100 is complete control; for Ryegrass, Italian plant response rating: Postemergence, 125 g ai/ha, 0 to 100 scale (0 no effect, 100 complete control)
Procedure, shortened: as §1

[8] = test system: barnyardgrass (Echinochloa crus-galli); assay: Test A postemergence, visual plant response rating; settings: for Barnyardgrass plant response rating (0 to 100 scale): 500 g ai/ha, postemergence, 0 is no effect, 100 is complete control; for Barnyardgrass plant response rating: Postemergence, 125 g ai/ha, 0 to 100 scale (0 no effect, 100 complete control)
Procedure, shortened: as §1

[9] = test system: blackgrass (Alopecurus myosuroides); assay: Test A postemergence, visual plant response rating; settings: for Blackgrass plant response rating (0 to 100 scale): 500 g ai/ha, postemergence, 0 is no effect, 100 is complete control; for Blackgrass plant response rating: Postemergence, 125 g ai/ha, 0 to 100 scale (0 no effect, 100 complete control)
Procedure, shortened: as §1

corn (Zea mays) = assay: Test A postemergence, visual plant response rating; settings: for Corn plant response rating (0 to 100 scale): 500 g ai/ha, postemergence, 0 is no effect, 100 is complete control; for Corn plant response rating: Postemergence, 125 g ai/ha, 0 to 100 scale (0 no effect, 100 complete control)
Procedure, shortened: as §1

[10] = test system: foxtail, giant (giant foxtail, Setaria faberii); assay: Test A postemergence, visual plant response rating; settings: for Foxtail, Giant plant response rating (0 to 100 scale): 500 g ai/ha, postemergence, 0 is no effect, 100 is complete control; for Foxtail, Giant plant response rating: Postemergence, 125 g ai/ha, 0 to 100 scale (0 no effect, 100 complete control)
Procedure, shortened: as §1

[11] = test system: galium (catchweed bedstraw, Galium aparine); assay: Test A postemergence, visual plant response rating; settings: for Galium plant response rating (0 to 100 scale): 500 g ai/ha, postemergence, 0 is no effect, 100 is complete control; for Galium plant response rating: Postemergence, 125 g ai/ha, 0 to 100 scale (0 no effect, 100 complete control)
Procedure, shortened: as §1

kochia (Kochia scoparia) [12] = assay: Test A postemergence, visual plant response rating; settings: for Kochia plant response rating (0 to 100 scale): 500 g ai/ha, postemergence, 0 is no effect, 100 is complete control; for Kochia plant response rating: Postemergence, 125 g ai/ha, 0 to 100 scale (0 no effect, 100 complete control)
Procedure, shortened: as §1

[13] = test system: pigweed (Amaranthus retroflexus); assay: Test A postemergence, visual plant response rating; settings: for Pigweed plant response rating (0 to 100 scale): 500 g ai/ha, postemergence, 0 is no effect, 100 is complete control; for Pigweed plant response rating: Postemergence, 125 g ai/ha, 0 to 100 scale (0 no effect, 100 complete control)
Procedure, shortened: as §1

[14] = test system: ragweed (common ragweed, Ambrosia elatior); assay: Test A postemergence, visual plant response rating; settings: for Ragweed plant response rating (0 to 100 scale): 500 g ai/ha, postemergence, 0 is no effect, 100 is complete control; for Ragweed plant response rating: Postemergence, 125 g ai/ha, 0 to 100 scale (0 no effect, 100 complete control)
Procedure, shortened: as §1

[15] = test system: wheat (Triticum aestivum); assay: Test A postemergence, visual plant response rating; settings: for Wheat plant response rating (0 to 100 scale): 500 g ai/ha, postemergence, 0 is no effect, 100 is complete control; for Wheat plant response rating: Postemergence, 125 g ai/ha, 0 to 100 scale (0 no effect, 100 complete control)
Procedure, shortened: as §1

[16] = test system: barnyardgrass (Echinochloa crus-galli); assay: Test B flooded paddy test, visual plant response rating; settings: 250 g ai/ha, Flood, applied to paddy water, 2-leaf stage, evaluated after 13 to 15 days
Procedure, shortened: (§2)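 2-leaf plants; pots flooded 3 cm over soil surface; compound dosed straight into the floodwater; depth kept constant; greenhouse 13–15 d; visual rating vs. untreated controls.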

[17] = test system: ducksalad (Heteranhera limosa); assay: as above; settings: 250 g ai/ha, Flood, applied to paddy water, 2-leaf stage, evaluated after 13 to 15 days
Procedure, shortened: as §2

rice (Oryza sativa) = assay: as above; settings: 250 g ai/ha, Flood, applied to paddy water, 2-leaf stage, evaluated after 13 to 15 days
Procedure, shortened: as §2

[18] = test system: sedge, umbrella (small-flower umbrella sedge, Cyperus difformis); assay: as above; settings: 250 g ai/ha, Flood, applied to paddy water, 2-leaf stage, evaluated after 13 to 15 days
Procedure, shortened: as §2

SMILES: CO/N=C(\c1cc(C)ccc1Cl)c1c(O)c(C)nn(C)c1=O [Compound 38]
- Ryegrass, Italian plant response rating [1]: 0
- Ryegrass, Italian plant response rating (0 to 100 scale) [1]: 0
- Barnyardgrass plant response rating [2]: 0
- Barnyardgrass plant response rating (0 to 100 scale) [2]: 0
- Foxtail, Giant plant response rating [3]: 0
- Foxtail, Giant plant response rating (0 to 100 scale) [3]: 10
- Kochia plant response rating (kochia (Kochia scoparia) [4]): 0
- Kochia plant response rating (0 to 100 scale) (kochia (Kochia scoparia) [4]): 20
- Pigweed plant response rating [5]: 0
- Pigweed plant response rating (0 to 100 scale) [5]: 0
- Ragweed plant response rating [6]: 30
- Ragweed plant response rating (0 to 100 scale) [6]: 30
- Ryegrass, Italian plant response rating (0 to 100 scale) [7]: 20
- Ryegrass, Italian plant response rating [7]: 10
- Barnyardgrass plant response rating (0 to 100 scale) [8]: 20
- Barnyardgrass plant response rating [8]: 20
- Blackgrass plant response rating (0 to 100 scale) [9]: 30
- Blackgrass plant response rating [9]: 10
- Corn plant response rating (0 to 100 scale) (corn (Zea mays)): 20
- Corn plant response rating (corn (Zea mays)): 10
- Foxtail, Giant plant response rating (0 to 100 scale) [10]: 30
- Foxtail, Giant plant response rating [10]: 10
- Galium plant response rating (0 to 100 scale) [11]: 90
- Galium plant response rating [11]: 80
- Kochia plant response rating (0 to 100 scale) (kochia (Kochia scoparia) [12]): 50
- Kochia plant response rating (kochia (Kochia scoparia) [12]): 10
- Pigweed plant response rating (0 to 100 scale) [13]: 60
- Pigweed plant response rating [13]: 20
- Ragweed plant response rating (0 to 100 scale) [14]: 70
- Ragweed plant response rating [14]: 60
- Wheat plant response rating (0 to 100 scale) [15]: 0
- Wheat plant response rating [15]: 0
- Plant response rating, Barnyardgrass (0 to 100 scale, 0 is no effect, 100 is complete control) [16]: 0
- Plant response rating, Ducksalad (0 to 100 scale, 0 is no effect, 100 is complete control) [17]: 0
- Plant response rating, Rice (0 to 100 scale, 0 is no effect, 100 is complete control) (rice (Oryza sativa)): 0
- Plant response rating, Sedge, Umbrella (0 to 100 scale, 0 is no effect, 100 is complete control) [18]: 0

SMILES: CO/N=C(\c1c(C)cccc1F)c1c(O)c(C)nn(C)c1=O [Compound 39]
- Ryegrass, Italian plant response rating [1]: 0
- Ryegrass, Italian plant response rating (0 to 100 scale) [1]: 0
- Barnyardgrass plant response rating [2]: 0
- Barnyardgrass plant response rating (0 to 100 scale) [2]: 0
- Foxtail, Giant plant response rating [3]: 0
- Foxtail, Giant plant response rating (0 to 100 scale) [3]: 0
- Kochia plant response rating (kochia (Kochia scoparia) [4]): 0
- Kochia plant response rating (0 to 100 scale) (kochia (Kochia scoparia) [4]): 0
- Pigweed plant response rating [5]: 0
- Pigweed plant response rating (0 to 100 scale) [5]: 0
- Ragweed plant response rating [6]: 0
- Ragweed plant response rating (0 to 100 scale) [6]: 30
- Ryegrass, Italian plant response rating (0 to 100 scale) [7]: 0
- Ryegrass, Italian plant response rating [7]: 0
- Barnyardgrass plant response rating (0 to 100 scale) [8]: 10
- Barnyardgrass plant response rating [8]: 0
- Blackgrass plant response rating (0 to 100 scale) [9]: 0
- Blackgrass plant response rating [9]: 0
- Corn plant response rating (0 to 100 scale) (corn (Zea mays)): 20
- Corn plant response rating (corn (Zea mays)): 0
- Foxtail, Giant plant response rating (0 to 100 scale) [10]: 0
- Foxtail, Giant plant response rating [10]: 0
- Galium plant response rating (0 to 100 scale) [11]: 70
- Galium plant response rating [11]: 40
- Kochia plant response rating (0 to 100 scale) (kochia (Kochia scoparia) [12]): 0
- Kochia plant response rating (kochia (Kochia scoparia) [12]): 0
- Pigweed plant response rating (0 to 100 scale) [13]: 10
- Pigweed plant response rating [13]: 0
- Ragweed plant response rating (0 to 100 scale) [14]: 60
- Ragweed plant response rating [14]: 0
- Wheat plant response rating (0 to 100 scale) [15]: 10
- Wheat plant response rating [15]: 0
- Plant response rating, Barnyardgrass (0 to 100 scale, 0 is no effect, 100 is complete control) [16]: 0
- Plant response rating, Ducksalad (0 to 100 scale, 0 is no effect, 100 is complete control) [17]: 0
- Plant response rating, Rice (0 to 100 scale, 0 is no effect, 100 is complete control) (rice (Oryza sativa)): 0
- Plant response rating, Sedge, Umbrella (0 to 100 scale, 0 is no effect, 100 is complete control) [18]: 0

SMILES: CON=C(c1c(O)c(C)nn(C)c1=O)c1ccc(Cl)c2ccccc12 [Compound 40]
- Ryegrass, Italian plant response rating [1]: 20
- Ryegrass, Italian plant response rating (0 to 100 scale) [1]: 60
- Barnyardgrass plant response rating [2]: 30
- Barnyardgrass plant response rating (0 to 100 scale) [2]: 60
- Foxtail, Giant plant response rating [3]: 50
- Foxtail, Giant plant response rating (0 to 100 scale) [3]: 90
- Kochia plant response rating (kochia (Kochia scoparia) [4]): 0
- Kochia plant response rating (0 to 100 scale) (kochia (Kochia scoparia) [4]): 10
- Pigweed plant response rating [5]: 30
- Pigweed plant response rating (0 to 100 scale) [5]: 60
- Ragweed plant response rating [6]: 40
- Ragweed plant response rating (0 to 100 scale) [6]: 80
- Ryegrass, Italian plant response rating (0 to 100 scale) [7]: 90
- Ryegrass, Italian plant response rating [7]: 50
- Barnyardgrass plant response rating (0 to 100 scale) [8]: 30
- Barnyardgrass plant response rating [8]: 30
- Blackgrass plant response rating (0 to 100 scale) [9]: 80
- Blackgrass plant response rating [9]: 70
- Corn plant response rating (0 to 100 scale) (corn (Zea mays)): 10
- Corn plant response rating (corn (Zea mays)): 0
- Foxtail, Giant plant response rating (0 to 100 scale) [10]: 50
- Foxtail, Giant plant response rating [10]: 10
- Galium plant response rating (0 to 100 scale) [11]: 100
- Galium plant response rating [11]: 70
- Kochia plant response rating (0 to 100 scale) (kochia (Kochia scoparia) [12]): 40
- Kochia plant response rating (kochia (Kochia scoparia) [12]): 10
- Pigweed plant response rating (0 to 100 scale) [13]: 40
- Pigweed plant response rating [13]: 10
- Ragweed plant response rating (0 to 100 scale) [14]: 80
- Ragweed plant response rating [14]: 70
- Wheat plant response rating (0 to 100 scale) [15]: 50
- Wheat plant response rating [15]: 20
- Plant response rating, Barnyardgrass (0 to 100 scale, 0 is no effect, 100 is complete control) [16]: 0
- Plant response rating, Ducksalad (0 to 100 scale, 0 is no effect, 100 is complete control) [17]: 0
- Plant response rating, Rice (0 to 100 scale, 0 is no effect, 100 is complete control) (rice (Oryza sativa)): 0
- Plant response rating, Sedge, Umbrella (0 to 100 scale, 0 is no effect, 100 is complete control) [18]: 0
